Calls of active or inactive are those of the source. No cut-off for these calls is given here.
Tests used:
[1] = biological target: T1, Bromodomain-containing protein 4 (Homo sapiens, UniProt O60885); assay: Inhibition of BRD4 (unknown origin) incubated for 120 mins by TR-FRET assay
[2] = biological target: T2, Nicotinamide phosphoribosyltransferase (Homo sapiens, UniProt P43490); assay: Inhibition of recombinant NAMPT (unknown origin) by fluorescence based assay
Target sequence in this assay (P43490 whole entry): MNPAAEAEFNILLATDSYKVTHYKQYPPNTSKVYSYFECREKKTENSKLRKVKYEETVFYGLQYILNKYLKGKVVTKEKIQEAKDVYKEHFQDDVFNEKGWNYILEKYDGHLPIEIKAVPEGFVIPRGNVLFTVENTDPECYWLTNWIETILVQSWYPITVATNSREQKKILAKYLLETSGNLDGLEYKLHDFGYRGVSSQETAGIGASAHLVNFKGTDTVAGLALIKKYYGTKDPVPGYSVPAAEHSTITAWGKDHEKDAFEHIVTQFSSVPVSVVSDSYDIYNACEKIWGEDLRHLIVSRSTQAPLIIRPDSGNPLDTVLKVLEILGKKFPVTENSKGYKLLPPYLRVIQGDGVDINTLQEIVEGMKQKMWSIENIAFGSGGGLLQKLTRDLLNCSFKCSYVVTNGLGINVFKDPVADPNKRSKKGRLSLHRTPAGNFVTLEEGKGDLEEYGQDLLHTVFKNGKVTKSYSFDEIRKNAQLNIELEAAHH

Hep 3B2 [3] = assay: Antiproliferative activity against NMN-treated human Hep3B cells incubated for 120 hrs by MTT assay; format: functional, cell-based
Hep 3B2 [4] = assay: Antiproliferative activity against NMN/NAMN-treated human Hep3B cells incubated for 120 hrs by MTT assay; format: functional, cell-based
HCCLM3 [5] = assay: Antiproliferative activity against NMN-treated human HCCLM3 cells incubated for 120 hrs by MTT assay; format: functional, cell-based
HCCLM3 [6] = assay: Antiproliferative activity against NMN/NAMN-treated human HCCLM3 cells incubated for 120 hrs by MTT assay; format: functional, cell-based
[7] = biological target: Bromodomain-containing protein 2 (Homo sapiens, UniProt P25440); assay: Inhibition of BRD2 BD1/2 (unknown origin) incubated for 120 mins by TR-FRET assay
[8] = biological target: Bromodomain-containing protein 3 (Homo sapiens, UniProt Q15059); assay: Inhibition of BRD3 BD1/2 (unknown origin) incubated for 120 mins by TR-FRET assay
[9] = biological target: T1, Bromodomain-containing protein 4; assay: Inhibition of BRD4 BD1/2 (unknown origin) incubated for 120 mins by TR-FRET assay
[10] = biological target: T1, Bromodomain-containing protein 4; assay: Inhibition of BRD4 BD2 (unknown origin) incubated for 120 mins by TR-FRET assay
[11] = biological target: T1, Bromodomain-containing protein 4; assay: Inhibition of BRD4 in human Hep3B cells assessed as decrease in c-Myc level at 1 to 10 uM measured after 72 hrs by immunoblot analysis; format: cell-based; conditions: dose 1-10 µM
[12] = biological target: T1, Bromodomain-containing protein 4; assay: Inhibition of BRD4 in human Hep3B cells assessed as decrease in YAP1 level at 1 to 10 uM measured after 72 hrs by immunoblot analysis; format: cell-based; conditions: dose 1-10 µM
Hep 3B2 [13] = assay: Downregulation of NAPRT level in human Hep3B cells at 1 to 10 uM measured after 72 hrs by immunoblot analysis; format: functional, cell-based; conditions: dose 1-10 µM
Hep 3B2 [14] = assay: Downregulation of NAMPT level in human Hep3B cells at 1 to 10 uM measured after 72 hrs by immunoblot analysis; format: functional, cell-based; conditions: dose 1-10 µM
[15] = biological target: T2, Nicotinamide phosphoribosyltransferase; assay: Inhibition of NAMPT in human Hep3B cells assessed as decrease in NAD+ level at 10 uM measured after 72 hrs by WST-8 assay; format: cell-based
Target sequence in this assay (P43490 whole entry, looked up): as the sequence (P43490 whole entry) above

[16] = biological target: T2, Nicotinamide phosphoribosyltransferase; assay: Inhibition of NAMPT in human HCCLM3 cells assessed as decrease in NAD+ level at 10 uM measured after 72 hrs by WST-8 assay; format: cell-based
Target sequence in this assay (P43490 whole entry, looked up): as the sequence (P43490 whole entry) above

Hep 3B2 [17] = assay: Induction of apoptosis in human Hep3B cells assessed as viable cells at 1 uM measured after 72 hrs by Annexin V-FITC/PI staining based flow cytometry (reference value: 94.08 %); format: functional; conditions: read-out: Activity
Hep 3B2 [18] = assay: Induction of apoptosis in human Hep3B cells assessed as early apoptotic cells at 1 uM measured after 72 hrs by Annexin V-FITC/PI staining based flow cytometry (reference value: 2.13 %); format: functional
Hep 3B2 [19] = assay: Induction of apoptosis in human Hep3B cells assessed as late apoptotic cells at 1 uM measured after 72 hrs by Annexin V-FITC/PI staining based flow cytometry (reference value: 1.05 %); format: functional
Hep 3B2 [20] = assay: Induction of apoptosis in human Hep3B cells assessed as viable cells at 5 uM measured after 72 hrs by Annexin V-FITC/PI staining based flow cytometry (reference value: 94.08 %); format: functional; conditions: read-out: Activity
Hep 3B2 [21] = assay: Induction of apoptosis in human Hep3B cells assessed as early apoptotic cells at 5 uM measured after 72 hrs by Annexin V-FITC/PI staining based flow cytometry (reference value: 2.13 %); format: functional
Hep 3B2 [22] = assay: Induction of apoptosis in human Hep3B cells assessed as necrotic cells at 5 uM measured after 72 hrs by Annexin V-FITC/PI staining based flow cytometry (reference value: 2.74 %); format: functional
Hep 3B2 [23] = assay: Induction of apoptosis in human Hep3B cells assessed as viable cells at 10 uM measured after 72 hrs by Annexin V-FITC/PI staining based flow cytometry (reference value: 94.08 %); format: functional; conditions: Homo sapiens, Hep3B, read-out: Activity
Hep 3B2 [24] = assay: Induction of apoptosis in human Hep3B cells assessed as early apoptotic cells at 10 uM measured after 72 hrs by Annexin V-FITC/PI staining based flow cytometry (reference value: 2.13 %); format: functional
Hep 3B2 [25] = assay: Induction of cell cycle arrest at G0/G1 phase in human Hep3B cells at 1 uM measured after 72 hrs by PI/RNase staining based flow cytometry (reference value: 56.73 %); format: functional
Hep 3B2 [26] = assay: Induction of cell cycle arrest at G2/M phase in human Hep3B cells at 1 uM measured after 72 hrs by PI/RNase staining based flow cytometry (reference value: 11.37 %); format: functional
Hep 3B2 [27] = assay: Induction of cell cycle arrest at S phase in human Hep3B cells at 1 uM measured after 72 hrs by PI/RNase staining based flow cytometry (reference value: 31.90 %); format: functional
Hep 3B2 [28] = assay: Induction of cell cycle arrest at G0/G1 phase in human Hep3B cells at 5 uM measured after 72 hrs by PI/RNase staining based flow cytometry (reference value: 56.73 %); format: functional
Hep 3B2 [29] = assay: Induction of cell cycle arrest at G2/M phase in human Hep3B cells at 5 uM measured after 72 hrs by PI/RNase staining based flow cytometry (reference value: 11.37 %); format: functional
Hep 3B2 [30] = assay: Induction of cell cycle arrest at S phase in human Hep3B cells at 5 uM measured after 72 hrs by PI/RNase staining based flow cytometry (reference value: 31.90 %); format: functional
Hep 3B2 [31] = assay: Induction of cell cycle arrest at G2/M phase in human Hep3B cells at 10 uM measured after 72 hrs by PI/RNase staining based flow cytometry (reference value: 11.37 %); format: functional
Hep 3B2 [32] = assay: Induction of cell cycle arrest at S phase in human Hep3B cells at 10 uM measured after 72 hrs by PI/RNase staining based flow cytometry (reference value: 31.90 %); format: functional
Hep 3B2 [33] = assay: Antimigratory activity in human Hep3B cells measured upto 24 hrs by wound healing assay; format: functional, cell-based; conditions: dose 1-10 µM
Hep 3B2 [34] = assay: Antimigratory activity in human Hep3B cells measured upto 24 hrs by transwell assay; format: functional, cell-based; conditions: dose 1-10 µM
HCCLM3 [35] = assay: Antitumor activity against human HCCLM3 cells xenografted in BALB/c nude mouse at 40 mg/kg, ip for 27 days relative to control; format: functional; conditions: HCCLM3, 648 h, time 27 day, read-out: TGI
[36] = Toxicity in BALB/c nude mouse xenografted with human HCCLM3 cells assessed as body weight loss at 40 to 80 mg/kg, ip for 27 days; format: organism-based; conditions: in vivo, 648 h, dose 40-80 mg/kg, time 27 day
HCCLM3 [37] = assay: In vivo inhibition of NAMPT in human HCCLM3 cells xenografted in BALB/c nude mouse assessed as reduction in NAD+ level in tumor tissue administered intraperitoneally for 27 days; format: functional, organism-based; conditions: dose 40-80 mg/kg, route ip, time 27.0 day
Huh-7 = assay: cells; conditions: Homo sapiens, Huh-7, 120 h
HCCLM3 [38] = assay: cells; conditions: Homo sapiens, HCCLM3, 120 h

Chain of Bromodomain-containing protein 3 (Q15059 whole entry): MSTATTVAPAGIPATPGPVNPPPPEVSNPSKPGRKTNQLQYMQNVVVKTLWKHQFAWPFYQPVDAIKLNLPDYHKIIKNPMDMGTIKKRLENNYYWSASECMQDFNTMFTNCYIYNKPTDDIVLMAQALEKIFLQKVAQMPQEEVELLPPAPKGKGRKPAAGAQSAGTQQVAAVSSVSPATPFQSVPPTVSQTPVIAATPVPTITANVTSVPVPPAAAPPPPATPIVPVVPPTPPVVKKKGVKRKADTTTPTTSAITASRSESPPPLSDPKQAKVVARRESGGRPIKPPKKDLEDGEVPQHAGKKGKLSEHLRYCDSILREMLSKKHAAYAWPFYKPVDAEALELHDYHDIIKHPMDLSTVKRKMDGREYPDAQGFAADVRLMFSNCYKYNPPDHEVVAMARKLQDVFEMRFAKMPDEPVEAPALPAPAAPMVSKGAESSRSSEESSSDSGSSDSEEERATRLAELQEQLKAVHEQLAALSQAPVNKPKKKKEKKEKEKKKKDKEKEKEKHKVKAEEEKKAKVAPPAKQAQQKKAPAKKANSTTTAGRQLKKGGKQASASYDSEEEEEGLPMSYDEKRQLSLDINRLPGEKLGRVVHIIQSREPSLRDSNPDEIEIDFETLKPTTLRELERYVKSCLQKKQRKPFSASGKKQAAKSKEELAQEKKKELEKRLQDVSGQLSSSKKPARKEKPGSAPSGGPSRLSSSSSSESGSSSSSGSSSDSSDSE
Chain of Bromodomain-containing protein 2 (P25440 whole entry): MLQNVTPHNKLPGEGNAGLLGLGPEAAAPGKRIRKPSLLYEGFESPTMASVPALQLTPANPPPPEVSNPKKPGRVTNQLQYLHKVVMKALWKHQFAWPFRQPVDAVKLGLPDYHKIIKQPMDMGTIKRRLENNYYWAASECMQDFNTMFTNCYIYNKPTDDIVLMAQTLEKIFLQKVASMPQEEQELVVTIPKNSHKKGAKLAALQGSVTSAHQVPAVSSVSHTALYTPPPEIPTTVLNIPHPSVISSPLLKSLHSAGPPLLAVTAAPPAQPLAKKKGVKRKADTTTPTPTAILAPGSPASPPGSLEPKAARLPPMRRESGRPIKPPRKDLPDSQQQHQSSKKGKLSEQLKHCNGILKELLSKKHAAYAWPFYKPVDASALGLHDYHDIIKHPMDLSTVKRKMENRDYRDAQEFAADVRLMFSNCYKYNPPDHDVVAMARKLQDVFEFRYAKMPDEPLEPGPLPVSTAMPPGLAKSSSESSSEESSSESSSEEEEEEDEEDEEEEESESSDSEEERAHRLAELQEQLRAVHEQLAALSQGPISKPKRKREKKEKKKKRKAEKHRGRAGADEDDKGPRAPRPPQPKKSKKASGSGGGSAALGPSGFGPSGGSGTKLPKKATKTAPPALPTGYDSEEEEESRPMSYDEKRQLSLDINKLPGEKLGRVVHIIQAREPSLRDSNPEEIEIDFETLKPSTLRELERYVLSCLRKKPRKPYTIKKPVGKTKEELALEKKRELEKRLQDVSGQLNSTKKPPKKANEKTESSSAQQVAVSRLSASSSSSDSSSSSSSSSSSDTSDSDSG

**Q.** For Cc1sc2c(c1C)C(c1ccc(Cl)cc1)=N[C@@H](CC(=O)NCCCNC(=O)/C=C/c1cccnc1)c1nnc(C)n1-2, which IC50 [1] is on record?
**A.** 58 nM

**Q.** What about the IC50 [2] of the same molecule?
**A.** 35 nM

**Q.** And the Activity (Hep 3B2 [3])?
**A.** inactive

**Q.** What about the Activity (Hep 3B2 [4]) of the same molecule?
**A.** inactive

**Q.** And the Activity (HCCLM3 [5])?
**A.** inactive

**Q.** And the Activity (HCCLM3 [6])?
**A.** inactive

**Q.** And the IC50 [7]?
**A.** 489 nM

**Q.** And the IC50 [8]?
**A.** 122 nM

**Q.** What about the IC50 [9] of the same molecule?
**A.** 58 nM

**Q.** What about the IC50 [10] of the same molecule?
**A.** 41 nM

**Q.** And the inhibition [11]?
**A.** Active

**Q.** And the inhibition [12]?
**A.** Active

**Q.** And the Activity (Hep 3B2 [13])?
**A.** Active

**Q.** And the Activity (Hep 3B2 [14])?
**A.** Active

**Q.** What about the inhibition [15] of the same molecule?
**A.** Active

**Q.** What about the inhibition [16] of the same molecule?
**A.** Active

**Q.** And the viability at 1 µM (Hep 3B2 [17])?
**A.** 83.9%

**Q.** What about the Activity (Hep 3B2 [18]) of the same molecule?
**A.** 8.83%

**Q.** What about the Activity (Hep 3B2 [19]) of the same molecule?
**A.** 4.58%

**Q.** What about the viability at 5 µM (Hep 3B2 [20]) of the same molecule?
**A.** 74.7%

**Q.** And the Activity (Hep 3B2 [21])?
**A.** 14.49%

**Q.** What about the Activity (Hep 3B2 [22]) of the same molecule?
**A.** 4.6%

**Q.** What about the viability at 10 µM (Hep 3B2 [23]) of the same molecule?
**A.** 72.1%

**Q.** What about the Activity (Hep 3B2 [24]) of the same molecule?
**A.** 18.89%

**Q.** What about the Activity (Hep 3B2 [25]) of the same molecule?
**A.** 66.06%

**Q.** What about the Activity (Hep 3B2 [26]) of the same molecule?
**A.** 9.76%

**Q.** What about the Activity (Hep 3B2 [27]) of the same molecule?
**A.** 24.18%

**Q.** And the Activity (Hep 3B2 [28])?
**A.** 71.08%

**Q.** What about the Activity (Hep 3B2 [29]) of the same molecule?
**A.** 8.35%

**Q.** And the Activity (Hep 3B2 [30])?
**A.** 20.57%

**Q.** And the Activity (Hep 3B2 [31])?
**A.** 5.54%

**Q.** What about the Activity (Hep 3B2 [32]) of the same molecule?
**A.** 18.21%

**Q.** What about the Activity (Hep 3B2 [33]) of the same molecule?
**A.** Dose-Dependent Effect

**Q.** What about the Activity (Hep 3B2 [34]) of the same molecule?
**A.** Dose-Dependent Effect

**Q.** What about the inhibition in vivo at 40 mg/kg (HCCLM3 [35]) of the same molecule?
**A.** 37.2%

**Q.** What about the Activity [36] of the same molecule?
**A.** Non-Toxic

**Q.** What about the Activity (HCCLM3 [37]) of the same molecule?
**A.** Active

**Q.** And the IC50 (Huh-7)?
**A.** 6490 nM

**Q.** And the IC50 (HCCLM3 [38])?
**A.** 5440 nM

From ChEMBL document CHEMBL5500370, “Discovery of potent and novel dual NAMPT/BRD4 inhibitors for efficient treatment of hepatocellular carcinoma” (Eur J Med Chem, 2024)
